According to patent US6730332B2, “Herbal composition having antiallergic properties and a process for the preparation thereof” (Natural Remedies Pvt. Ltd., priority 2000, dated 2004):

How the values were obtained:
systemic anaphylaxis = assay: Compound 48/80 induced systemic anaphylaxis in rats; format: in vivo; conditions: 10 mg/kg
Source text: The effect of NR-A2 in compound 48/80 (Condensation product of N-methyl-p-methoxyphenylamine with formaldehyde) induced systemic anaphylaxis was studied in rats. In this context the reference may be made to Y. M. Lee, Kim D. K, (1996) Journal of Ethnopharmacology, 54, 77-84. The animals were divided into five groups, one served as control, one standard and three groups for NR-A2. The standard (Prednisolone), NRA-2 & vehicle were given 30 days prior to intra-peritoneal administration of compound 48/80 (Condensation product of N-methyl-p-methoxyphenylamine with formaldehyde). The dose of Prednisolone was 10 mg/kg while those of NR-A2 were 150, 250, 350 mg/kg b.w. Number of deaths per group within one hour were calculated.

[1] = system: Freund's adjuvant induced paw edema; assay: Adjuvant induced arthritis; format: in vivo, albino wistar rats; conditions: standard, rats, P<0.05
Method: Freund's adjuvant is a mixture of dead mycobacterium finely ground in liquid paraffin at a concentration of 5 mg/ml. When injected in hind paw it produces an edema characterised as a bi-phasic response, which persists up to 21 days. The injection of Freund's adjuvant in rat hind paw produces conditions similar to rheumatoid arthritis, a delayed hypersensitivity reaction.
NR-A2 was administered to albino wistar rats orally at doses of 150, 250 and 350 mg to body weight for 30 days before and 21 days after injecting Freund's adjuvant. Paw volume was measured using plethesmograph.

active paw anaphylaxis = assay: Active paw anaphylaxis in mice; format: in vivo; conditions: 14 mg/kg body weight, P<0.05
Method: Active paw anaphylaxis in mice was studied using egg albumin as the antigen adsorbed on aluminum hydroxide. In this context the reference may be made to Ghoosi R. B, Bhide M. B, (1981) Allergy Appl. Immunol., 15, 53. and Nair A. M. et al. (1995) Indian Drugs, 32(6), 277-282. The mice were dosed with NR-A2 at different doses orally in 0.5% CMC for 30 days. Prednisolone was taken as the standard. On 31st day they were sensitized with antigen, and the treatment continued. On 12^Th day after sensitization the animals were re-challenged with egg albumin in saline subcutaneously in plantar region of right hind paw while the contralateral paw received an equal volume of saline. Paw thickness was measured using pocket thickness gauge (Mitutoyo Manufacturing Co. Japan) 15 minutes after the challenge. The difference in paw thickness of right paw compared to the left paw, reflected the edema due to antigen-antibody reaction.

mouse paw edema = assay: Compound 48/80 induced mouse paw edema; format: in vivo, mice; conditions: 1 mg/kg mouse body weight, P<0.05
Method: Compound 48/80 (Condensation product of N-methyl-p-methoxyphenylamine with formaldehyde) was used to induce mouse paw edema in mice. In this context the reference may be made to Nair A M, Tamhankar C P and Saraf M N (1995) Indian drugs, 32(6), 277-282. The animals were treated with NR-A2 at doses of 175, 225 and 275 mg/kg body weight orally 30 days prior to the test. Standard group received Ketotifen in the dose of 1 mg/kg b.w.

mast cells = assay: mast cell stabilization bioassay; format: cell-based, rats
Source text: The present invention is based on our experience and knowledge about the usage of various herbs along with our in depth studies on traditional literature. For this project a number of plants and plant preparations were selected for detailed studies. The selected plants/extracts were then subjected to the mast cell stabilization bioassay. This bioassay has been reported to be one of the important tools in detecting the substances having antiallergic activity. In this context reference may be made to “Rajashekharan M. et al, J. Drug Dev., 1989, 2(3), 179-182.” Mast cells are basophilic cells in subcutaneous and connective tissue. They are found in large numbers in mesentery of rats and contain numerous membrane bounded granules, which contain strong pharmacologically active mediators such as histamine, SRS-A, Serotonin, bradykinin etc. The role of mast cells in pathogenesis of allergic disease has been well recognized. Mast cells contain receptors for Fc fragment of IgE antibodies. Therefore, IgE antibodies formed on exposure to antigen will combine with the mast cells. On subsequent re-exposure to the same antigen, there occurs an antigen antibody reaction which will initiate mast cell de-granulation in a similar manner as that of de-granulating agents like carbachol or the compound which is the condensation product of N-methyl-p-methoxyphenylamine with formaldehyde. […]

SMILES: C[C@]12C=CC(=O)C=C1CC[C@@H]1[C@@H]2[C@@H](O)C[C@@]2(C)[C@H]1CC[C@]2(O)C(=O)CO [Prednisolone]
- inhibition of compound 48/80 induced anaphylaxis (deaths within one hour) (systemic anaphylaxis): 62.97%
- inhibition of adjuvant paw edema [1]: 95.63%
- inhibition of paw edema (active paw anaphylaxis): 74.03%

SMILES: CN1CCC(=C2c3ccccc3CC(=O)c3sccc32)CC1 [Ketotifen]
- inhibition of paw edema (mouse paw edema): 64.22%

SMILES: O=C([O-])c1cc(=O)c2c(OCC(O)COc3cccc4oc(C(=O)[O-])cc(=O)c34)cccc2o1.[Na+].[Na+] [Disodiumchromoglycate]
- EC50 values (mast cells; mast cell stabilization assay, screening of plant extracts (Table 1)): 3.68 µg/mL
- EC50, mast cell stabilizing activity (mast cells; selected prototypes (Table 2)): 3.66 µg/mL
